# Data taken from article PMC4256409, “Role of Phenylalanine and Valine^10 Residues in the Antimicrobial Activity and Cytotoxicity of Piscidin-1” (PLoS ONE, 2014).
# Where no end group is shown, it is not given here.
# Key:
# E. coli KCTC2593 = assay type: cell-based, Escherichia coli; conditions: E. coli KCTC2593; broth microdilution, 37°C, 16 h; three independent experiments in triplicate, SD 14.0%
# From the text: (§1) Escherichia coli KCTC 1682, E. coli KCTC 2593, E. coli KCTC 2571, Salmonella typhimurium KCTC 1926, Pseudomonas aeruginosa KCTC 1637, P. aeruginosa KCTC 2004, P. aeruginosa KCTC 2513, Bacillus subtilis KCTC 3068, B. subtilis KCTC 1021, B. subtilis KCTC 1022, Staphylococcus epidermidis KCTC 1917, Staphylococcus aureus KCTC 1621, S. aureus KCTC 1916, and S. aureus KCTC 3881 were purchased from the Korean Collection for Type Cultures, Korea Research Institute of Bioscience & Biotechnology (Taejon, Korea). Methicillin-resistant S. aureus (MRSA) (CCARM 3089, CCARM 3090, CCARM 3108, CCARM 3114, and CCARM 3126), multidrug-resistant E. coli (MDREC) (CCARM 1229 and CCARM 1238), multidrug-resistant S. typhimurium (MDRST) (CCARM 8003, CCARM 8007, and CCARM 8009), multidrug-resistant Acinetobacter baumanii (MDRAB) (CCARM 12005, CCARM 12035, CCARM 12036, CCARM 12037), and multidrug-resistant P. aeruginosa (MDRPA) (CCARM 2002, CCARM 2003, CCARM 2095, and CCARM 2163) were obtained from the Culture Collection of Antibiotic-Resistant Microbes (CCARM) at Seoul Women’s University in Korea. The antimicrobial activities of the peptides against selected organisms, including three Gram-positive, three Gram-negative, and five antibiotic-resistant bacteria, were determined using a broth microdilution assay. Briefly, single colonies of bacteria and fungi were inoculated into Luria-Bertani (LB) medium and cultured overnight at 37°C. An aliquot of the culture was transferred to 10 mL of fresh LB and incubated for an additional 3–5 h at 37°C until it reached the mid-logarithmic phase. Two-fold serial dilutions of the peptides in 1% peptone were prepared. The serial dilutions (100 µL) were added to 100 µL of cells (2×10^6 colony-forming units (CFU)/mL) in 96-well microtiter plates and incubated at 37°C for 16 h. […] MIC values were calculated as the average of triplicate measurements from three independent assays.
# P. aeruginosa KCTC2004 = assay type: cell-based, Pseudomonas aeruginosa; conditions: P. aeruginosa KCTC2004; broth microdilution, 37°C, 16 h; three independent experiments in triplicate, SD 14.0%
# Method: (§2) The antimicrobial activities of the peptides against selected organisms, including three Gram-positive, three Gram-negative, and five antibiotic-resistant bacteria, were determined using a broth microdilution assay. Briefly, single colonies of bacteria and fungi were inoculated into Luria-Bertani (LB) medium and cultured overnight at 37°C. An aliquot of the culture was transferred to 10 mL of fresh LB and incubated for an additional 3–5 h at 37°C until it reached the mid-logarithmic phase. Two-fold serial dilutions of the peptides in 1% peptone were prepared. The serial dilutions (100 µL) were added to 100 µL of cells (2×10^6 colony-forming units (CFU)/mL) in 96-well microtiter plates and incubated at 37°C for 16 h. […] MIC values were calculated as the average of triplicate measurements from three independent assays.
# P. aeruginosa KCTC2513 = assay type: cell-based, Pseudomonas aeruginosa; conditions: P. aeruginosa KCTC2513; broth microdilution, 37°C, 16 h; three independent experiments in triplicate, SD 14.0%
# Method: as §2
# S. typhimurium KCTC1926 = assay type: cell-based, Salmonella typhimurium; conditions: S. typhimurium KCTC1926; broth microdilution, 37°C, 16 h; three independent experiments in triplicate, SD 14.0%
# Method: as §2
# B. subtilis KCTC3068 = assay type: cell-based, Bacillus subtilis; conditions: B. subtilis KCTC3068; broth microdilution, 37°C, 16 h; three independent experiments in triplicate, SD 14.0%
# Method: as §2
# B. subtilis KCTC1022 = assay type: cell-based, Bacillus subtilis; conditions: B. subtilis KCTC1022; broth microdilution, 37°C, 16 h; three independent experiments in triplicate, SD 14.0%
# Method: as §2
# S. epidermidis KCTC1917 = assay type: cell-based, Staphylococcus epidermidis; conditions: S. epidermidis KCTC1917; broth microdilution, 37°C, 16 h; three independent experiments in triplicate, SD 14.0%
# Method: as §2
# S. aureus KCTC1621 = assay type: cell-based, Staphylococcus aureus; conditions: S. aureus KCTC1621; broth microdilution, 37°C, 16 h; three independent experiments in triplicate, SD 14.0%
# Method: as §2
# S. aureus KCTC1916 = assay type: cell-based, Staphylococcus aureus; conditions: S. aureus KCTC1916; broth microdilution, 37°C, 16 h; three independent experiments in triplicate, SD 14.0%
# Method: as §2
# S. aureus KCTC3881 = assay type: cell-based, Staphylococcus aureus; conditions: S. aureus KCTC3881; broth microdilution, 37°C, 16 h; three independent experiments in triplicate, SD 14.0%
# From the text: as §1
# MRSA CCARM3089 = assay type: cell-based, Methicillin-resistant S. aureus; conditions: MRSA CCARM3089; broth microdilution, 37°C, 16 h; three independent experiments in triplicate, SD 14.0%
# From the text: as §1
# MRSA CCARM 3090 = assay type: cell-based, Methicillin-resistant S. aureus; conditions: MRSA CCARM 3090; broth microdilution, 37°C, 16 h; three independent experiments in triplicate, SD 14.0%
# From the text: as §1
# MRSA CCARM 3114 = assay type: cell-based, Methicillin-resistant S. aureus; conditions: MRSA CCARM 3114; broth microdilution, 37°C, 16 h; three independent experiments in triplicate, SD 14.0%
# From the text: as §1
# MRSA CCARM 3126 = assay type: cell-based, Methicillin-resistant S. aureus; conditions: MRSA CCARM 3126; broth microdilution, 37°C, 16 h; three independent experiments in triplicate, SD 14.0%
# From the text: as §1
# MDRST CCARM 8009 = assay type: cell-based, multidrug-resistant S. typhimurium; conditions: broth microdilution, 37°C, 16 h, three independent experiments in triplicate, SD 14.0%
# From the text: as §1
# MDREC CCARM 1229 = assay type: cell-based, multidrug-resistant E. coli; conditions: broth microdilution, 37°C, 16 h, three independent experiments in triplicate, SD 14.0%
# Method: as §2
# MDRAB CCARM 12035 = assay type: cell-based, multidrug-resistant Acinetobacter baumanii; conditions: broth microdilution, 37°C, 16 h, three independent experiments in triplicate, SD 14.0%
# Method: as §2
# MDRAB CCARM 12037 = assay type: cell-based, multidrug-resistant Acinetobacter baumanii; conditions: broth microdilution, 37°C, 16 h, three independent experiments in triplicate, SD 14.0%
# Method: as §2
# MDRPA CCARM 2002 = assay type: cell-based, multidrug-resistant P. aeruginosa; conditions: broth microdilution, 37°C, 16 h, three independent experiments in triplicate, SD 14.0%
# Method: as §2
# MDRPA CCARM 2003 = assay type: cell-based, multidrug-resistant P. aeruginosa; conditions: broth microdilution, 37°C, 16 h, three independent experiments in triplicate, SD 14.0%
# Method: as §2
# MDRPA CCARM 2095 = assay type: cell-based, multidrug-resistant P. aeruginosa; conditions: broth microdilution, 37°C, 16 h, three independent experiments in triplicate, SD 14.0%
# Method: as §2
# MDRPA CCARM 2163 = assay type: cell-based, multidrug-resistant P. aeruginosa; conditions: broth microdilution, 37°C, 16 h, three independent experiments in triplicate, SD 14.0%
# Method: as §2
# [1] = system: Standard bacterial strains; assay type: cell-based; conditions: average over the 14 standard bacterial strains of Table 2
sequence,measurement,setting,value
"FFHHIFRGIVHVGKTIHRLVTG [Pis-1, reference compound]",MIC,E. coli KCTC2593,1.0 µM
same,MIC,P. aeruginosa KCTC2004,2.0 µM
same,MIC,P. aeruginosa KCTC2513,2.0 µM
same,MIC,S. typhimurium KCTC1926,2.0 µM
same,MIC,B. subtilis KCTC3068,1.0 µM
same,MIC,B. subtilis KCTC1022,1.0 µM
same,MIC,S. epidermidis KCTC1917,2.0 µM
same,MIC,S. aureus KCTC1621,1.0 µM
same,MIC,S. aureus KCTC1916,1.0 µM
same,MIC,S. aureus KCTC3881,2.0 µM
same,MIC,MRSA CCARM3089,8.0 µM
same,MIC,MRSA CCARM 3090,8.0 µM
same,MIC,MRSA CCARM 3114,4.0 µM
same,MIC,MRSA CCARM 3126,4.0 µM
same,MIC,MDRST CCARM 8009,4.0 µM
same,MIC,MDREC CCARM 1229,4.0 µM
same,MIC,MDRAB CCARM 12035,2.0 µM
same,MIC,MDRAB CCARM 12037,2.0 µM
same,MIC,MDRPA CCARM 2002,2.0 µM
same,MIC,MDRPA CCARM 2003,2.0 µM
same,MIC,MDRPA CCARM 2095,2.0 µM
same,MIC,MDRPA CCARM 2163,2.0 µM
same,Average MIC,[1],1.5 µM
